Source: article doi:10.1101/2023.02.14.528391v1 (biorxiv, 2023)

How the values were obtained:
hERG potassium channel [1] = target: T1, hERG potassium channel (Homo sapiens, UniProt Q12809); assay: in vitro; details: % inhibition
hERG potassium channel [2] = target: T1, hERG potassium channel; assay: biochemical; details: hERG / Ki (nM)
hERG potassium channel [3] = target: T1, hERG potassium channel; assay: biochemical; details: hERG / IC50 (nM)

T1 sequence (Q12809 whole entry): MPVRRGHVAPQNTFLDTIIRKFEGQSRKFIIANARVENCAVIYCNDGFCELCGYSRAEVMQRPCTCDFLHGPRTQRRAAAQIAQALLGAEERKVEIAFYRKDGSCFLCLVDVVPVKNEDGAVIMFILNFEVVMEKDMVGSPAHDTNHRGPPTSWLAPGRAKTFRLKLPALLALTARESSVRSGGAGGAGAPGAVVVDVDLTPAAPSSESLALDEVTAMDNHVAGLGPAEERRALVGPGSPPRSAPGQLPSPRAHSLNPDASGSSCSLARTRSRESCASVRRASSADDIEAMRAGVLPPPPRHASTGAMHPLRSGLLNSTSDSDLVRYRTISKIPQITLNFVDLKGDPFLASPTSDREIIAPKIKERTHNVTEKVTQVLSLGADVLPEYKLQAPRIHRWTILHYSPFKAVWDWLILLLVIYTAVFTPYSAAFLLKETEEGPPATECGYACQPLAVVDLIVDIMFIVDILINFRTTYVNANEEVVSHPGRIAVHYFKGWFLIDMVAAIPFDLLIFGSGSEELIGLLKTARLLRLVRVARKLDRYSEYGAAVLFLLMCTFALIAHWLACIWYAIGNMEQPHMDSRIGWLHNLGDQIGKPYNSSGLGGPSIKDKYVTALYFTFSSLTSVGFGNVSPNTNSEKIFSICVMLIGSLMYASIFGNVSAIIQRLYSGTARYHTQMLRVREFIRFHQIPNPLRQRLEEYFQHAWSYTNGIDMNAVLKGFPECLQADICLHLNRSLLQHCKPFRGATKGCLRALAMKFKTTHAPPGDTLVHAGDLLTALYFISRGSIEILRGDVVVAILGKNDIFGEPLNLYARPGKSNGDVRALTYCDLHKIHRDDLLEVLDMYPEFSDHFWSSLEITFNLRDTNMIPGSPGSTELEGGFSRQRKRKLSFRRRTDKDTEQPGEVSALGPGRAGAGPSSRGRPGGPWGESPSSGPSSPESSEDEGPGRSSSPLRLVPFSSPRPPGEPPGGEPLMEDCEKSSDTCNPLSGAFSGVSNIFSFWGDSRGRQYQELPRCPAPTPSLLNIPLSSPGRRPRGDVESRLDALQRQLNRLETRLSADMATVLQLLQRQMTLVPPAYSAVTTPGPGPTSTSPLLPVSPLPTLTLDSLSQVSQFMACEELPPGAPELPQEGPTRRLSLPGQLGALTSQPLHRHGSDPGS

SMILES	inhibition at 10 µM (hERG potassium channel [1])	further results
CN(C)CCCn1nc(-c2ccccn2)c2ccccc2c1=O [GMD_13497]	33.6%	Ki (hERG potassium channel [2]; Synthesis=NBI): 4300 nM; IC50 (hERG potassium channel [3]; Synthesis=NBI): 6070 nM
CN(C)CCN(C)c1nc2ccccc2n1Cc1ccccc1F [GMD_15306]	40.7%	Ki (hERG potassium channel [2]; Synthesis=NBI): 2150 nM; IC50 (hERG potassium channel [3]; Synthesis=NBI): 3040 nM
CN(C)CCN(Cc1cccs1)c1ccncc1Cl [s_27____7100914____16711384]	49.5%	Ki (hERG potassium channel [2]; Synthesis=Enamine): 6060 nM; IC50 (hERG potassium channel [3]; Synthesis=Enamine): 8570 nM
CN(C)CCN(Cc1cccs1)c1nccc(F)c1Cl [s_27____7100914____15703356]	55.7%	Ki (hERG potassium channel [2]; Synthesis=Enamine): 5180 nM; IC50 (hERG potassium channel [3]; Synthesis=Enamine): 7320 nM
CN(C)CCN(Cc1cccc(Cl)c1)c1ncncc1Cl [s_27____7100894____9139880]	91.6%	Ki (hERG potassium channel [2]; Synthesis=Enamine): 507 nM; IC50 (hERG potassium channel [3]; Synthesis=Enamine): 717 nM
CN(C)CCN(Cc1ccccc1F)C(=O)N1CCCc2c(Cl)ccnc21 [s_272164____17323936____17325014]	90.6%	Ki (hERG potassium channel [2]; Synthesis=Enamine): 300 nM; IC50 (hERG potassium channel [3]; Synthesis=Enamine): 425 nM
CN(C)CCCn1nc(-c2ccc(F)cc2)c2ccccc2c1=O [s_49____14518112____1114614]	80.8%	IC50 (hERG potassium channel [3]; Synthesis=Enamine): 2100 nM
CN(C)CCCn1nc(-c2cccs2)c2ccccc2c1=O [GMD_12264]		Ki (hERG potassium channel [2]; Synthesis=NBI): 1340 nM; IC50 (hERG potassium channel [3]; Synthesis=NBI): 1890 nM
CN(C)CCN(Cc1ccccc1)Cc1nc2ccccc2n1C [s_270004____10205888____7548808]	75%	Ki (hERG potassium channel [2]; Synthesis=Enamine): 1050 nM; IC50 (hERG potassium channel [3]; Synthesis=Enamine): 1480 nM
CN(C)CCN(Cc1ccccc1F)C(=O)c1csc2ccccc12 [s_527____7348186____205300]	55.6%	Ki (hERG potassium channel [2]; Synthesis=Enamine): 4980 nM; IC50 (hERG potassium channel [3]; Synthesis=Enamine): 7040 nM
CN(C)CCn1c(-c2ccccc2Cl)nc2ccccc21 [s_60____1081314____90809]	2.2%	Ki (hERG potassium channel [2]; Synthesis=Enamine): 4990 nM; IC50 (hERG potassium channel [3]; Synthesis=Enamine): 7050 nM
CN(C)CCCn1nc(-c2cncc(Cl)c2)c2ccccc2c1=O [GMD_27933]	80.4%	Ki (hERG potassium channel [2]; Synthesis=NBI): 684 nM; IC50 (hERG potassium channel [3]; Synthesis=NBI): 968 nM
CN(C)CCn1nc(-c2ccc(Cl)cc2)c2ccccc2c1=O [NBI1099469]	71.7%	Ki (hERG potassium channel [2]; Synthesis=NBI): 1230 nM; IC50 (hERG potassium channel [3]; Synthesis=NBI): 1740 nM
CN(C)CCN(Cc1ccccc1F)Cc1c(Cl)ccc2cccnc12 [s_270004____10205940____8625260]	88.9%	Ki (hERG potassium channel [2]; Synthesis=Enamine): 58.3 nM; IC50 (hERG potassium channel [3]; Synthesis=Enamine): 82.5 nM
CCc1csc(N(CCCN(C)C)Cc2ccc(Cl)c(Cl)c2)n1 [s_27____7425384____12641810]	86.2%	Ki (hERG potassium channel [2]; Synthesis=Enamine): 757 nM; IC50 (hERG potassium channel [3]; Synthesis=Enamine): 1070 nM
CN(C)CCn1nc(-c2cncc(Cl)c2)c2ccccc2c1=O [NBI1099473]	86.1%	
CN(C)CCN(Cc1nccn1C)C(=O)c1ccn(-c2ccccc2Cl)n1 [s_22____16636986____2366818]	25.8%	
CN(C)CCCn1nc(-c2ccccc2)c2ccccc2c1=O [s_49____14518112____88928]		Ki (hERG potassium channel [2]; Synthesis=Enamine): 2620 nM; IC50 (hERG potassium channel [3]; Synthesis=Enamine): 3710 nM
Cc1ccc(-c2nn(CN(C)CCC3CCOCC3)c(=O)c3ccccc23)cc1 [m_26____7043632____590162]	7.12%	
Clc1ccccc1N(CCN1CCOCC1)Cc1cc2ncccc2s1 [s_2230____12297302____16648172]	66%	
CN(C)CCn1nc(-c2cccnc2)c2ccccc2c1=O [GMD_36918]	2.87%	
CN(C)CCOc1ccccc1-c1cn(C)c2cccnc12 [s_271570____11676396____16733458]	63.8%	
CN(C)CCN(Cc1cccs1)Cc1cc2cnn(C)c2nc1Cl [s_270004____10206112____16971162]	78.3%	

SMILES	inhibition at 10 µM (hERG potassium channel [1])	further results
CN(C)c1ncccc1CN1CCN(C(=O)c2c(Cl)cccc2Cl)CC1 [s_270004____8133704____10229386]	2.59%	
CN(C)CCN(CCO)Cc1csc(-c2c(Cl)cccc2Cl)n1 [s_2230____15141024____14479640]	9.6%	
CN(C)CCCn1nc(-c2ccncc2)c2ccccc2c1=O [NBI1099478]	23.4%	
CN(C)CCN(C(=O)c1cccc2ncccc12)c1ccccc1 [s_11____2264406____15260550]	21.8%	
CSc1ncccc1-c1nn(CCCN(C)C)c(=O)c2ccccc12 [NBI1100649]	28.2%	Ki (hERG potassium channel [2]; Synthesis=NBI): 6150 nM; IC50 (hERG potassium channel [3]; Synthesis=NBI): 8700 nM
Cc1ccc2cc(C(=O)N(CCN(C)C)Cc3ccccc3F)ccc2n1 [s_527____7348186____7593650]	21.8%	
Cc1ccc2c(C(=O)N(CCN(C)C)c3ccccn3)ccnc2c1Cl [s_11____17828754____14179334]	29.9%	
Cc1cccc2c(C(=O)N(CCN(C)C)c3ccccn3)cnn12 [s_11____17828754____16474570]	20.8%	
CN(C)CCn1nc(-c2cccs2)c2ccccc2c1=O [NBI1099533]	9.92%	
CN(CCCN(C)C(=O)c1ccnc2ccsc12)C(=O)c1cncc(Cl)c1	2.59%	
CN(C)CCn1nc(-c2ccccc2Cl)c2ccccc2c1=O [GMD_12767]	84.2%	Ki (hERG potassium channel [2]; Synthesis=NBI): 1120 nM; IC50 (hERG potassium channel [3]; Synthesis=NBI): 1590 nM
COc1cc(C(=O)N(CCN(C)C)c2ccccc2)c2ncccc2c1 [s_11____2264406____15769708]	22.5%	
CN(C)CCCn1nc(-c2cccnc2)c2ccccc2c1=O [GMD_11677]	31.1%	Ki (hERG potassium channel [2]; Synthesis=NBI): 7870 nM; IC50 (hERG potassium channel [3]; Synthesis=NBI): 11100 nM
Cc1ccccc1Cn1c(CCN(C)C)nc2ccccc21 [GMD_8492]	9.23%	
CN(C)CCN(Cc1ccccc1)c1nc2cccc(F)c2s1 [s_27____7100858____10689034]	83%	IC50 (hERG potassium channel [3]; Synthesis=Enamine): 2240 nM
CN(C)CCCn1nc(-c2cccc(Cl)c2)c2ccccc2c1=O [GMD_9433]	92.5%	Ki (hERG potassium channel [2]; Synthesis=NBI): 510 nM; IC50 (hERG potassium channel [3]; Synthesis=NBI): 721 nM
CN(C)CCCn1nc(-c2ccc(Cl)cc2)c2ccccc2c1=O [s_49____14518112____88929]		IC50 (hERG potassium channel [3]; Synthesis=Enamine): 909 nM
CSc1ncccc1-c1nn(CCN(C)C)c(=O)c2ccccc12 [NBI1100648]	44.2%	
CN(C)CCN(Cc1ccccc1F)c1ncc(Cl)cc1Cl [s_27____7100864____12221638]	86.4%	
CN(C)CCCN(Cc1ccc(Cl)c(Cl)c1)C(=O)c1nccnc1Cl [s_22____1500308____12360522]	57.7%	
CN(C)CCc1nc2ccccc2n1Cc1ccc(F)cc1 [GMD_9161]	6.04%	
CN(C)CCn1nc(-c2ccccc2)c2ccccc2c1=O [GMD_24043]	60.1%	
CN(C)CCC(Sc1nccn1Cc1ccccn1)c1ccccc1 (stereo not shown) [s_7____4839872____13940010]	5.79%	

SMILES	inhibition at 10 µM (hERG potassium channel [1])	further results
CN(C)CCCN(Cc1ccc(Cl)c(Cl)c1)c1ncc(Cl)cc1[N+](=O)[O-] [s_27____7425384____7556080]	78.8%	Ki (hERG potassium channel [2]; Synthesis=Enamine): 729 nM; IC50 (hERG potassium channel [3]; Synthesis=Enamine): 1030 nM
Cc1cccc2c(C(=O)N(CCN(C)C)Cc3ccccc3F)nccc12 [s_527____7348186____14188826]	52.7%	
CN(C)CCN(Cc1cccc(Cl)c1)c1cncc(Cl)n1 [s_27____7100894____215633]	78.1%	Ki (hERG potassium channel [2]; Synthesis=Enamine): 1180 nM; IC50 (hERG potassium channel [3]; Synthesis=Enamine): 1660 nM
CN(C)CCc1nc2ccccc2n1Cc1ccc(F)c(F)c1 [GMD_9634]	16.1%	
CSc1nccc(N(CCCN(C)C)Cc2ccc(Cl)c(Cl)c2)n1 [s_27____7425384____15607934]	86.6%	Ki (hERG potassium channel [2]; Synthesis=Enamine): 772 nM; IC50 (hERG potassium channel [3]; Synthesis=Enamine): 1090 nM
CN(C)CCN(Cc1cccc(F)c1)Cc1c(Cl)ccc2cccnc12 [s_270004____10206024____8625260]	97%	Ki (hERG potassium channel [2]; Synthesis=Enamine): 110 nM; IC50 (hERG potassium channel [3]; Synthesis=Enamine): 156 nM
CN(C)CCn1nc(-c2cccc(Cl)c2)c2ccccc2c1=O [GMD_13630]	79.1%	Ki (hERG potassium channel [2]; Synthesis=NBI): 1710 nM; IC50 (hERG potassium channel [3]; Synthesis=NBI): 2420 nM
CN(C)CCN(Cc1ccccc1)C(=O)N1CCSc2ccncc21 [s_272164____9389444____9363352]	31.1%	
CN(C)CCN(Cc1ccsc1)C(=O)c1cc2c(Cl)cncc2s1 [s_11____10910498____13033826]	79.5%	
CN(C)CCN(Cc1ccccc1)Cc1c(Cl)cccc1-n1ccnc1 [s_270004____10205888____17057166]	71.1%	
CN(C)CCCn1nc(-c2cccs2)c2ccccc2c1=O [s_49____14518112____101877]	81.7%	IC50 (hERG potassium channel [3]; Synthesis=Enamine): 1340 nM
CN(C)CCN(CCCc1ccccc1)C(=O)c1cn(C)c2ccccc12 [s_22____2161756____115777]	63.8%	
CN(C)CCN(Cc1cccc(OCc2ccc(F)cc2)c1)Cc1nccn1C [s_270004____16637008____8127840]	91.3%	
CN(C)CCn1nc(-c2ccncc2)c2ccccc2c1=O [NBI1099472]	15%	
Clc1ccccc1-n1ccc(CNC2(c3ncccn3)CCOCC2)n1 [s_2230____13270592____17316260]	-0.942%	
CC(=Cc1ccccc1Cl)C(=O)N(CCN(C)C)c1ccccn1 [s_11____17828754____7832710]	48.4%	
CN(C)CCN(Cc1cccc(Cl)c1)C(=O)N1CCSc2ccncc21 [s_272164____9389444____9369516]	75.9%	
CN(C)CCc1nc2ccccc2n1Cc1ccccc1Cl [GMD_7286]	51.3%	
CN(C)CCN(Cc1ccccc1F)C(=O)c1c(Cl)ccc2cccnc12 [s_527____7348186____16891240]	59.1%	
CN(CCN(C)C(=O)c1cccnc1N(C)C)Cc1cccc(Cl)c1	17.1%	
CN(C)CCCSc1nnc(-c2cnccn2)n1-c1ccc(Cl)cc1 [s_7____7285292____9475634]	32.1%	
Cc1csc2ccnc(N3CCOCC4(COCCN4Cc4ccccc4)C3)c12 (stereo not shown) [s_27____15756872____16607386]	62.1%	
CN(C)CCc1nc2ccccc2n1CCc1ccccc1 [GMD_12737]	45.4%	
